Patent US11339419B2, “Scavenger protein(s) for improved preservation of analyte detection sensor(s) and method(s) of use thereof” (Siemens Healthcare Diagnostics Inc., priority 2017, dated 2022)
“And” between values parts separate entries of the source, which are not always exact repeats. Identical values can stand only once.

Key:
[1] = system: sarcosine oxidase (Toyobo); assay: Toyobo Sarcosine Oxidase Enzyme Absorbance with BSA and Proclin 300; type: biochemical
Text: Absorbance measurements of the sarcosine oxidase enzyme(s) were taken via spectrophotometer for each aqueous solution (represented as columns 1-5 in Tables 1-4—column 6 is a blank), the absorbance being directly proportional to the enzyme activity being measured-which for Tables 1-4 is sarcosine oxidase enzyme activity. Accordingly, the higher the absorbance measurement, the higher the enzyme activity of sarcosine oxidase. […] In addition, the mean values, standard deviations, and coefficients of variation are also presented for the enzyme activity/absorbance of each aqueous solution. All measurements were taken at 37° C.

creatininase (Toyobo) = assay: Toyobo Creatininase Enzyme Absorbance with BSA and MIT; type: biochemical
Text: Absorbance measurements of the creatininase enzyme(s) were taken via spectrophotometer for each aqueous solution (represented as columns 1-5 in Tables 5-8—column 6 is a blank), the absorbance being directly proportional to the enzyme activity being measured-which for Tables 5-8 is creatininase enzyme activity. Accordingly, the higher the absorbance measurement, the higher the enzyme activity of creatininase. Columns 7-11 represent five replicate readings in which the solution only contains BSA (i.e., there is no biocide(s) present in the solution). In addition, the mean values, standard deviations, and coefficients of variation are all presented for the enzyme activity/absorbance of each aqueous solution. All measurements were taken at 37° C.
As depicted in Table 6, creatininase (commercially offered for sale by Toyobo) enzyme activity is measured against various concentrations of MIT (biocide) and BSA (scavenger protein) over a period of 14 days (with absorbance measurement taken at 0, 4, and 14 days) for five different aqueous solutions (represented as columns 1-5—column 6 is a blank).

[2] = Day 0, BSA 5 mg/mL only, no Proclin 300, line of 0.7% Proclin 300
[3] = Day 0, BSA 5 mg/mL only, no Proclin 300, line of 1.4% Proclin 300
[4] = Day 0, BSA 25 mg/mL only, no Proclin 300, line of 0.7% Proclin 300
[5] = Day 0, BSA 25 mg/mL only, no Proclin 300, line of 1.4% Proclin 300
[6] = Day 0, BSA 50 mg/mL only, no Proclin 300, line of 0.7% Proclin 300
[7] = Day 0, BSA 50 mg/mL only, no Proclin 300, line of 1.4% Proclin 300
[8] = Day 0, 5 mg/mL BSA, no MIT (row of 50 ppm MIT)
[9] = Day 0, 5 mg/mL BSA, no MIT (row of 100 ppm MIT)
[10] = Day 0, 25 mg/mL BSA, no MIT (row of 50 ppm MIT)
[11] = Day 0, 25 mg/mL BSA, no MIT (row of 100 ppm MIT)
[12] = Day 0, 50 mg/mL BSA, no MIT (row of 50 ppm MIT)
[13] = Day 0, 50 mg/mL BSA, no MIT (row of 100 ppm MIT)
[14] = Day 0, 50 ppm MIT, 25 mg/mL BSA
[15] = Day 0, 50 ppm MIT, 50 mg/mL BSA
[16] = Day 0, 100 ppm MIT, 5 mg/mL BSA
[17] = Day 0, 100 ppm MIT, 25 mg/mL BSA
[18] = Day 0, 100 ppm MIT, 50 mg/mL BSA
[19] = Day 4, 50 ppm MIT, 25 mg/mL BSA
[20] = Day 4, 50 ppm MIT, 50 mg/mL BSA

bovine serum albumin [BSA]
Absorbance, solutions 7-11 [1, 2]: 1.419 | MEAN absorbance, solutions 7-11 [1, 2]: 1.39 | Absorbance, solutions 7-11 [1, 3]: 1.397 and 1.427 and 1.404 | MEAN absorbance, solutions 7-11 [1, 3]: 1.35 | Absorbance, solutions 7-11 [1, 4]: 1.443 | MEAN absorbance, solutions 7-11 [1, 4]: 1.40 | Absorbance, solutions 7-11 [1, 5]: 1.403 and 1.426 and 1.429 and 1.44 | MEAN absorbance, solutions 7-11 [1, 5]: 1.37 | Absorbance, solutions 7-11 [1, 6]: 1.418 | MEAN absorbance, solutions 7-11 [1, 6]: 1.39 | Absorbance, solutions 7-11 [1, 7]: 1.409 and 1.41 and 1.444 | MEAN absorbance, solutions 7-11 [1, 7]: 1.37 | MEAN absorbance, solutions 7-11 ([1]; Day 4, BSA 5 mg/mL only, no Proclin 300, line of 0.7% Proclin 300): 0.81 | MEAN absorbance, solutions 7-11 ([1]; Day 4, BSA 5 mg/mL only, no Proclin 300, line of 1.4% Proclin 300): 0.86 | MEAN absorbance, solutions 7-11 ([1]; Day 4, BSA 25 mg/mL only, no Proclin 300, line of 0.7% Proclin 300): 1.30 | MEAN absorbance, solutions 7-11 ([1]; Day 4, BSA 25 mg/mL only, no Proclin 300, line of 1.4% Proclin 300): 1.32 | MEAN absorbance, solutions 7-11 ([1]; Day 4, BSA 50 mg/mL only, no Proclin 300, line of 0.7% Proclin 300): 1.31 | MEAN absorbance, solutions 7-11 ([1]; Day 4, BSA 50 mg/mL only, no Proclin 300, line of 1.4% Proclin 300): 1.32 | MEAN absorbance, solutions 7-11 ([1]; Day 14, BSA 5 mg/mL only, no Proclin 300, line of 0.7% Proclin 300): 0.25 | MEAN absorbance, solutions 7-11 ([1]; Day 14, BSA 5 mg/mL only, no Proclin 300, line of 1.4% Proclin 300): 0.29 | MEAN absorbance, solutions 7-11 ([1]; Day 14, BSA 25 mg/mL only, no Proclin 300, line of 0.7% Proclin 300): 1.34 | MEAN absorbance, solutions 7-11 ([1]; Day 14, BSA 25 mg/mL only, no Proclin 300, line of 1.4% Proclin 300): 1.34 | MEAN absorbance, solutions 7-11 ([1]; Day 14, BSA 50 mg/mL only, no Proclin 300, line of 1.4% Proclin 300): 1.39 | absorbance of the sarcosine oxidase enzyme compared to samples containing 0 mg/mL of BSA ([1]; days 4 and 14, 5, 25 and 50 mg/mL BSA, with Proclin 300): increased absorbance | sarcosine oxidase absorbance, solutions 7-11 ([1]; days 4 and 14, only BSA, no Proclin 300): increased (or at least maintained) | Creatininase Enzyme Absorbance, columns 7-11 (creatininase (Toyobo); [8]): 0.791 and 0.78 | MEAN (columns 7-11) (creatininase (Toyobo); [8]): 0.59 | Creatininase Enzyme Absorbance, columns 7-11 (creatininase (Toyobo); [9]): 0.806 and 0.802 and 0.845 | MEAN (columns 7-11) (creatininase (Toyobo); [9]): 0.61 | Creatininase Enzyme Absorbance, columns 7-11 (creatininase (Toyobo); [10]): 0.767 | MEAN (columns 7-11) (creatininase (Toyobo); [10]): 0.58 | Creatininase Enzyme Absorbance, columns 7-11 (creatininase (Toyobo); [11]): 0.751 and 0.768 and 0.799 and 0.806 | MEAN (columns 7-11) (creatininase (Toyobo); [11]): 0.57 | Creatininase Enzyme Absorbance, columns 7-11 (creatininase (Toyobo); [12]): 0.845 | MEAN (columns 7-11) (creatininase (Toyobo); [12]): 0.64 | Creatininase Enzyme Absorbance, columns 7-11 (creatininase (Toyobo); [13]): 0.735 and 0.782 and 0.778 | MEAN (columns 7-11) (creatininase (Toyobo); [13]): 0.55 | % Bias (creatininase (Toyobo); Day 0, 50 ppm MIT vs no MIT, 5 mg/mL BSA): 6.6% | % Bias (creatininase (Toyobo); Day 0, 50 ppm MIT vs no MIT, 25 mg/mL BSA): 8.6% | % Bias (creatininase (Toyobo); Day 0, 50 ppm MIT vs no MIT, 50 mg/mL BSA): 4.9% | Creatininase Enzyme Absorbance (creatininase (Toyobo); Day 0, 50 ppm MIT, 5 mg/mL BSA): 0.893 and 0.808 and 0.806 and 0.812 and 0.843 | MEAN (creatininase (Toyobo); Day 0, 50 ppm MIT, 5 mg/mL BSA): 0.63 | Creatininase Enzyme Absorbance (creatininase (Toyobo); [14]): 0.895 and 0.829 and 0.788 and 0.82 and 0.831 | MEAN (creatininase (Toyobo); [14]): 0.63 | Creatininase Enzyme Absorbance (creatininase (Toyobo); [15]): 0.905 and 0.862 and 0.847 and 0.863 and 0.895 | MEAN (creatininase (Toyobo); [15]): 0.67 | % Bias (creatininase (Toyobo); Day 0, 100 ppm MIT vs no MIT, 5 mg/mL BSA): 7.6% | % Bias (creatininase (Toyobo); Day 0, 100 ppm MIT vs no MIT, 25 mg/mL BSA): 10.4% | % Bias (creatininase (Toyobo); Day 0, 100 ppm MIT vs no MIT, 50 mg/mL BSA): 10.1% | Creatininase Enzyme Absorbance (creatininase (Toyobo); [16]): 0.922 and 0.849 and 0.843 and 0.844 and 0.859 | MEAN (creatininase (Toyobo); [16]): 0.66 | Creatininase Enzyme Absorbance (creatininase (Toyobo); [17]): 0.905 and 0.838 and 0.807 and 0.795 and 0.811 | MEAN (creatininase (Toyobo); [17]): 0.63 | Creatininase Enzyme Absorbance (creatininase (Toyobo); [18]): 0.867 and 0.794 and 0.799 and 0.792 and 0.771 | MEAN (creatininase (Toyobo); [18]): 0.60 | MEAN (columns 7-11) (creatininase (Toyobo); Day 4, 5 mg/mL BSA, no MIT (row of 50 ppm MIT)): 0.81 | MEAN (columns 7-11) (creatininase (Toyobo); Day 4, 5 mg/mL BSA, no MIT (row of 100 ppm MIT)): 0.77 | MEAN (columns 7-11) (creatininase (Toyobo); Day 4, 25 mg/mL BSA, no MIT (row of 50 ppm MIT)): 0.64 | MEAN (columns 7-11) (creatininase (Toyobo); Day 4, 25 mg/mL BSA, no MIT (row of 100 ppm MIT)): 0.62 | MEAN (columns 7-11) (creatininase (Toyobo); Day 4, 50 mg/mL BSA, no MIT (row of 50 ppm MIT)): 0.52 | MEAN (columns 7-11) (creatininase (Toyobo); Day 4, 50 mg/mL BSA, no MIT (row of 100 ppm MIT)): 0.51 | % Bias (creatininase (Toyobo); Day 4, 50 ppm MIT vs no MIT, 5 mg/mL BSA): −0.2% | % Bias (creatininase (Toyobo); Day 4, 50 ppm MIT vs no MIT, 25 mg/mL BSA): 1.5% | % Bias (creatininase (Toyobo); Day 4, 50 ppm MIT vs no MIT, 50 mg/mL BSA): 1.9% | Creatininase Enzyme Absorbance (creatininase (Toyobo); Day 4, 50 ppm MIT, 5 mg/mL BSA): 1.031 and 0.998 and 1.012 and 1.044 and 1.01 | MEAN (creatininase (Toyobo); Day 4, 50 ppm MIT, 5 mg/mL BSA): 0.81 | Creatininase Enzyme Absorbance (creatininase (Toyobo); [19]): 0.867 and 0.847 and 0.853 and 0.878 and 0.873 | MEAN (creatininase (Toyobo); [19]): 0.65 | Creatininase Enzyme Absorbance (creatininase (Toyobo); [20]): 0.737 and 0.728 and 0.749 and 0.75 and 0.765 | MEAN (creatininase (Toyobo); [20]): 0.53 | % Bias (creatininase (Toyobo); Day 4, 100 ppm MIT vs no MIT, 5 mg/mL BSA): 2.2% | % Bias (creatininase (Toyobo); Day 4, 100 ppm MIT vs no MIT, 25 mg/mL BSA): 5.6%
